Laboratory results from patent publication US10947574B2, “Method for producing fermented carotenoid using carotenoid-producing bacteria obtained by using cobalt-containing culturing medium” (ENEOS CORPORATION, priority 2015, dated 2021).

Key:
[1] = test system: Paracoccus sp. strain A-581-1 (FERM BP-4671); assay: Example 6: cobalt concentration series, growth (OD610) and carotenoid levels (HPLC); format: cell-based
Method: (§1) In the following examples, carotenoids were quantified by high performance liquid chromatography (HPLC) as follows.
(§2) Two columns of Inertsil SIL-100A, 5 μm (ϕ4.6 mm×250 mm) (GL Sciences Inc., Japan) were connected together for use as a column. For elution, a mixed solution of n-hexane, tetrahydrofuran and methanol (40:20:1) serving as a mobile phase was passed through the column at a flow rate of 1.0 mL per minute at a constant temperature around room temperature. For measurement, samples were each dissolved in tetrahydrofuran and diluted 100-fold with the mobile phase, and 20 μL aliquots of the resulting dilutions were injected into the column. The column eluates were detected at a wavelength of 470 nm. As a standard for quantification, astaxanthin (SIGMA, Cat. No. A9335) was used. The astaxanthin concentration of the standard solution was determined using the following equation after measuring the absorbance (A) of the standard solution at 477 nm and the area percentage % (B) of the astaxanthin peak in HPLC analysis under the above conditions.
The ingredients used to prepare the test tube medium for seed culture were obtained from lots where microbial cells had been confirmed to grow well.
The ingredients used to prepare the test tube medium for production were obtained from lots where microbial cells had been confirmed not to grow well.
The resulting culture solution was then inoculated in 0.05 ml volumes into the 7 types of test tube media for production having different cobalt concentrations, and cultured under shaking at 29° C. for 4 days at 300 spm.
(§3) After being cultured for 4 days, the culture solutions were each measured for microbial cell growth by OD610 and measure for carotenoid levels by HPLC.

[2] = test system: Paracoccus carotinifaciens strain E-396 (FERM BP-4283); assay: Example 4: medium lots A-E with cobalt chloride, growth (OD610) and carotenoid levels (HPLC); format: cell-based; conditions: for Astaxanthin / OD610 / Total carotenoid: cobalt chloride added 0.1 mg/L (0.42 μmol/L)
Method: as §1, §2
Subsequently, medium ingredients from different manufacturers and lots were combined to prepare 5 types of media, i.e., A, B, C, D and E indicated in Table 7, each having the following composition (glucose 30 g/L, filtered corn steep liquor 30 g/L, ammonium sulfate 1.5 g/L, potassium dihydrogen phosphate 1.5 g/L, disodium hydrogen phosphate dodecahydrate 3.8 g/L, calcium chloride dihydrate 5.0 g/L, magnesium sulfate heptahydrate 0.7 g/L, iron sulfate heptahydrate 1.0 g/L, silicon-based defoaming agent 0.2 g/L). These media were each dispensed in 7.2 ml volumes into cotton-plugged test tubes having an inner diameter of 18 mm to prepare 2 test tubes for each test tube medium for production, i.e., 10 test tubes in total.
The resulting culture solution was then inoculated in 0.05 ml volumes into the 5 types of test tube media for production having different cobalt concentrations (10 test tubes in total), and cultured under shaking at 28° C. for 4 days at 300 spm.
as §3

[3] = cobalt added 0.00042 μmol/L, total 0.0024 μmol/L
[4] = cobalt added 0.0042 μmol/L, total 0.0062 μmol/L
[5] = cobalt added 0.042 μmol/L, total 0.044 μmol/L
[6] = cobalt added 0.42 μmol/L, total 0.42 μmol/L
[7] = cobalt added 4.2 μmol/L, total 4.2 μmol/L
[8] = cobalt added 42 μmol/L, total 42 μmol/L
[9] = medium lot A, total cobalt 0.42 μmol/L
[10] = medium lot B, total cobalt 0.62 μmol/L
[11] = medium lot C, total cobalt 0.46 μmol/L
[12] = medium lot D, total cobalt 0.43 μmol/L
[13] = medium lot E, total cobalt 0.49 μmol/L
[14] = final concentration of 0.1 mg/L, regardless of manufacturer and lot of medium ingredient

SMILES: O.O.O.O.O.O.[Cl-].[Cl-].[Co+2] [Cobalt chloride hexahydrate]
- Astaxanthin [1, 3]: 0.3 mg/L
- OD610 [1, 3]: 3
- Total carotenoid [1, 3]: 0.9 mg/L
- Astaxanthin [1, 4]: 0.5 mg/L
- OD610 [1, 4]: 5
- Total carotenoid [1, 4]: 1.7 mg/L
- Astaxanthin [1, 5]: 2.0 mg/L
- OD610 [1, 5]: 21
- Total carotenoid [1, 5]: 5.3 mg/L
- Astaxanthin [1, 6]: 2.1 mg/L
- OD610 [1, 6]: 22
- Total carotenoid [1, 6]: 5.6 mg/L
- Astaxanthin [1, 7]: 1.2 mg/L
- OD610 [1, 7]: 21
- Total carotenoid [1, 7]: 5.5 mg/L
- Astaxanthin [1, 8]: 0.0 mg/L
- OD610 [1, 8]: 2
- Total carotenoid [1, 8]: 0.2 mg/L
- Astaxanthin ([2]; Average of medium lots A-E): 28 mg/L
- OD610 ([2]; Average of medium lots A-E): 37
- Total carotenoid ([2]; Average of medium lots A-E): 41 mg/L
- Astaxanthin [2, 9]: 29 mg/L
- OD610 [2, 9]: 37
- Total carotenoid [2, 9]: 41 mg/L
- Astaxanthin [2, 10]: 26 mg/L
- OD610 [2, 10]: 39
- Total carotenoid [2, 10]: 40 mg/L
- Astaxanthin [2, 11]: 29 mg/L
- OD610 [2, 11]: 38
- Total carotenoid [2, 11]: 44 mg/L
- Astaxanthin [2, 12]: 27 mg/L
- OD610 [2, 12]: 36
- Total carotenoid [2, 12]: 41 mg/L
- Astaxanthin [2, 13]: 28 mg/L
- OD610 [2, 13]: 37
- Total carotenoid [2, 13]: 40 mg/L
- bacterial growth, in words [2, 14]: high
- carotenoid productivity, in words [2, 14]: high
